Measured values from patent US6143719A, “Bradykinin analogs as selective thrombin inhibitors” (The Regents of the University of Michigan, priority 1996, dated 2000).
Ends that are not written are not given here.

Molecular target: T1, thrombin receptor (Homo sapiens, UniProt P25116)
T1 construct: endogenous in cells; host or cells: washed platelets from fresh blood
T1 sequence (P25116 22-425): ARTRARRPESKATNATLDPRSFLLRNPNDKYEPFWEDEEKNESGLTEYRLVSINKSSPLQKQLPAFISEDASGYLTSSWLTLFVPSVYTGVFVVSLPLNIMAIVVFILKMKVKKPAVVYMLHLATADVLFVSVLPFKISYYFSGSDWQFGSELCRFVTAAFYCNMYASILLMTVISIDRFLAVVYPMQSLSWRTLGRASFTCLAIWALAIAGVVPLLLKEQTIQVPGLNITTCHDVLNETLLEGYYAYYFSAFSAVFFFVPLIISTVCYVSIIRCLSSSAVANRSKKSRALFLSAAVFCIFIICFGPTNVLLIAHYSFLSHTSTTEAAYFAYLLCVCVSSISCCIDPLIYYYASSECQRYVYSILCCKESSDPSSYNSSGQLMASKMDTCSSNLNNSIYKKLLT
Test: flow cytometry of thrombin receptor epitopes (SPAN12, ATAP138) on α-thrombin activated platelets
Assay type: cell-based
Conditions: peptide 1 mM, α-thrombin 1 nM
Experimental: Flow cytometry studies were performed to determine whether BK analogs prevent α-thrombin from eliminating an epitope on the thrombin receptor which is lost following α-thrombin cleavage- of the receptor. SPAN12 is an antibody to the thrombin receptor on platelets, which is specific for such an epitope. Studies were also performed to determine the effect of BK analogs on an epitope recognized by monoclonal antibody ATAP 138. The antibody is directed to an epitope on the thrombin receptor which is preserved after α-thrombin cleaves the receptor (FIGS. 7A-7D).
Monoclonal antibody SPAN12 was reared to the 12 amino acids, Asn-Ala-Thr-Leu-Asp-Pro-Arg-Ser-Phe-Leu-Leu-Arg (SEQ ID NO:2), that bridge the α-thrombin cleavage site on the thrombin receptor by the methods of Molinot et al., J. Biol. Chem. 270:ln Press, 1995. […]
Mouse IgG and an antibody to the epitope CD62 were used as controls. […] The fluorescence of bound FITC-anti-IgG to platelets was monitored on an Epics-C flow cytometer (Coulter Electronics, Hialeah, Fla.). Light scatter and fluorescence channels were set at logarithmic gain. […] Green fluorescence was observed through a 525 nm band pass filter. The relative fluorescence intensity of at least 15,000 platelets was analyzed in each sample. […]

Question: RPPGFSPFR [BK, bradykinin] was tested. Which “loss of SPAN12 epitope of thrombin receptor on α-thrombin activated platelets” value did it give?
Answer: The value was “prevents the loss of the epitope”.
